MFC and MIC data for two compounds are collected here from patent US4207320A, “Amino-substituted imidazo[1,2-a:3,4-a']diquinolin-15-ium salts compositions and method of use” (Warner-Lambert Company, priority 1978, dated 1980).

For assay [1], the system named is C. parapsilosis. The experiment in a line: Broth Tube Dilution Test, minimal fungicidal concentration. Format: cell-based, Candida parapsilosis. Conditions: Lodderomyces parapsilosis, 28° C., 24 hours later. As to the method:
(§1) The test compounds are serially diluted in pure dimethylformamide, giving a concentration of 4000, 800, 160 and 32 micrograms/milliliters(μg./ml.).A further dilution (typically a 2-fold or a 5-fold dilution) is made from each of the above serial dilutions into tubes containing 9.4 ml. BactoSabouraud Dextrose Broth, resulting in a set of broth tubes with specific final drug concentrations for which activity is to be determined. Each of the broth tubes is then inoculated with 0.5 ml. of a stock suspension of the same test organism. After inoculation, all of the tubes are incubated at 28° C. The tubes are read 48 hours to 7 days post inoculation, depending on the organism being tested. The lowest concentration of test compound at which growth of the organism is prevented in the broth tubes is taken as the minimal inhibitory concentration (MIC). The Broth+Serum Dilution Test is performed in the same manner as the Broth Tube Dilution Test except that the liquid medium consists of 50% BactoSabouraud Dextrose Broth and 50% normal calf serum from citrated blood. […] The tubes are then read and the lowest concentration of test compound for which there is no growth of the organism in the broth tube is taken as the minimal fungicidal concentration (MFC).

Assay [2] relates to C. krusei. In words: Broth Tube Dilution Test, minimal inhibitory concentration. It counts as cell-based, Candida krusei. As to conditions: Pichia kudriavzevii, 28° C., at 72. As to the method:
(§2) Minimal Inhibitory Concentration (MIC) The test compounds are serially diluted in pure dimethylformamide, giving a concentration of 4000, 800, 160 and 32 micrograms/milliliters(μg./ml.).A further dilution (typically a 2-fold or a 5-fold dilution) is made from each of the above serial dilutions into tubes containing 9.4 ml. BactoSabouraud Dextrose Broth, resulting in a set of broth tubes with specific final drug concentrations for which activity is to be determined. Each of the broth tubes is then inoculated with 0.5 ml. of a stock suspension of the same test organism. After inoculation, all of the tubes are incubated at 28° C. The tubes are read 48 hours to 7 days post inoculation, depending on the organism being tested. The lowest concentration of test compound at which growth of the organism is prevented in the broth tubes is taken as the minimal inhibitory concentration (MIC). The Broth+Serum Dilution Test is performed in the same manner as the Broth Tube Dilution Test except that the liquid medium consists of 50% BactoSabouraud Dextrose Broth and 50% normal calf serum from citrated blood.

For assay [3], the system named is C. guilliermondi. In words: Broth Tube Dilution Test, minimal fungicidal concentration. Format: cell-based, Candida gulliermondi. As to conditions: Candida, 28° C., 24 hours later. The protocol: as §1
In assay [4] the test system is C. guilliermondi. The experiment in a line: Broth Tube Dilution Test, minimal inhibitory concentration. Format: cell-based, Candida gulliermondi. As to conditions: Candida, 28° C., at 72. As to the method:
as §2

For assay [5], the system named is C. krusei. The experiment in a line: Broth Tube Dilution Test, minimal fungicidal concentration. Format: cell-based, Candida krusei. As to conditions: Pichia kudriavzevii, 28° C., 24 hours later. As to the method: as §1
Assay [6] deals with C. tropicalis. The assay is described as above. As to conditions: Candida tropicalis, 28° C., 24 hours later. Format: cell-based. As to the method: (§3) The test compounds are serially diluted in pure dimethylformamide, giving a concentration of 4000, 800, 160 and 32 micrograms/milliliters(μg./ml.).A further dilution (typically a 2-fold or a 5-fold dilution) is made from each of the above serial dilutions into tubes containing 9.4 ml. BactoSabouraud Dextrose Broth, resulting in a set of broth tubes with specific final drug concentrations for which activity is to be determined. Each of the broth tubes is then inoculated with 0.5 ml. of a stock suspension of the same test organism. After inoculation, all of the tubes are incubated at 28° C. The tubes are read 48 hours to 7 days post inoculation, depending on the organism being tested. The lowest concentration of test compound at which growth of the organism is prevented in the broth tubes is taken as the minimal inhibitory concentration (MIC). The Broth+Serum Dilution Test is performed in the same manner as the Broth Tube Dilution Test except that the liquid medium consists of 50% BactoSabouraud Dextrose Broth and 50% normal calf serum from citrated blood. Minimal Fungicidal Concentrations (MFC) For a determination of fungicidal activity, the broth tubes described above are incubated at 28° C. for 48 hours and then serially diluted 1:100 into Bacto-Sabouraud Dextrose Broth and incubated again for 48 hours. The tubes are then read and the lowest concentration of test compound for which there is no growth of the organism in the broth tube is taken as the minimal fungicidal concentration (MFC).

Assay [7] concerns Geotrichum candidum. Described as above. Format: cell-based. Conditions: 28° C., 24 hours later. As to the method: as §3
In assay [8] the test system is C. albicans. The assay is described as above. Format: cell-based. As to conditions: Candida albicans, 28° C., 24 hours later. As to the method: as §3
The subject of assay [9] is C. stellatoidea. The assay is described as above. Format: cell-based. As to conditions: Candida albicans, 28° C., 24 hours later. The protocol: as §3
The subject of assay [10] is C. tropicalis. In words: Broth Tube Dilution Test, minimal inhibitory concentration. Format: cell-based. As to conditions: Candida tropicalis, 28° C., at 72. The protocol: as §2
Assay [11] has as its system Geotrichum candidum. The assay is described as above. It counts as cell-based. Conditions: 28° C., at 72. As to the method: as §2
For assay [12], the system named is C. albicans. The assay is described as above. Format: cell-based. Conditions: Candida albicans, 28° C., at 72. The protocol: as §2
Assay [13] has as its system C. stellatoidea. Described as above. Conditions: Candida albicans, 28° C., at 72. It counts as cell-based. As to the method:
as §2

Assay [14] has as its system C. parapsilosis. The assay is described as above. It counts as cell-based, Candida parapsilosis. Conditions: Lodderomyces parapsilosis, 28° C., at 72. The protocol: as §2

By MFC is commonly meant the lowest tested concentration that kills the fungus rather than only halting it. For orientation: MIC means the smallest concentration in the dilution series that meets the test's criterion for growth inhibition.

A value given as a limit tells only on which side of the number the result lay.

In the case of `CC(C)(C)c1ccc2c(ccc3c[n+]4c5ccc(N6CCCC6)cc5ccc4n32)c1.[Cl-]` [Example 7, 10-(1,1-Dimethylethyl)-3-(1-pyrrolidinyl)imidazo[1,2-a:3,4-a']diquinolin-15-ium Chloride], the MFC against C. parapsilosis [1] was more than 10 µg/mL; in the assay on C. guilliermondi [3], 2.5 µg/mL; in the assay on C. krusei [5], 10 µg/mL; with C. tropicalis [6], more than 10 µg/mL; against Geotrichum candidum [7], more than 10 µg/mL; against C. albicans [8], 10 µg/mL. The compound further yielded an MFC in the assay on C. stellatoidea [9] of 5 µg/mL. Besides, the MIC in the assay on C. krusei [2] is 10 µg/mL; with C. guilliermondi [4], 2.5 µg/mL; against C. tropicalis [10], more than 10 µg/mL; against Geotrichum candidum [11], 10 µg/mL; against C. albicans [12], 10 µg/mL; with C. stellatoidea [13], 2.61 µg/mL. For the same compound, in the assay on C. parapsilosis [14], the MIC came out at 10 µg/mL.
Regarding `CCc1ccc2c(ccc3c[n+]4c5ccc(N6CCCC6)cc5ccc4n32)c1.[Cl-]` [Example 26, 10-Ethyl-3-(1-pyrrolidinyl)imidazo[1,2-a: 3,4-a']diquinolin-15-ium chloride], the minimum fungicidal concentration (MFC) in the assay on C. parapsilosis [1] is more than 10 µg/mL; in the assay on C. guilliermondi [3], more than 10 µg/mL; against C. krusei [5], 2.5 µg/mL; with C. tropicalis [6] it was more than 10 µg/mL; against Geotrichum candidum [7], more than 10 µg/mL; in the assay on C. albicans [8] it was 2.5 µg/mL. The compound also returned a minimal fungicidal concentration (MFC) against C. stellatoidea [9] of 5 µg/mL. Further, the minimal inhibitory concentration (MIC) in the assay on C. krusei [2] came to 2.5 µg/mL; against C. guilliermondi [4], 10 µg/mL; against C. tropicalis [10], 10 µg/mL; in the assay with Geotrichum candidum [11] it was 5 µg/mL; in the assay with C. albicans [12], 2.5 µg/mL; against C. stellatoidea [13], 1.25 µg/mL. Moreover, the MIC with C. parapsilosis [14] was 5 µg/mL.
